Read-outs that look alike come from different tables or passages of the source.
How the values were obtained:
[1] = Mouse liver microsomes stability; assay type: in vitro ADME; conditions: mouse liver microsomes; for microsomal CLint at 2 μM / half-life at 2 μM / CLint scaled at 2 μM: male, pooled liver microsomes; for microsomal CLint at 2 μM: mouse, read-out: CLint (μL/min/mg protein); for microsomal CLint at 2 μM / half-life at 2 μM: 2 μM compound, 0.5 mg/mL; for CLint scaled at 2 μM: read-out: Scaled-up CLint
[2] = Human liver microsomes stability; assay type: in vitro ADME; conditions: human liver microsomes; for half-life at 2 μM / microsomal CLint at 2 μM: 2 μM compound, 0.5 mg/mL; for microsomal CLint at 2 μM: read-out: CLint (μL/min/mg protein); for CLint scaled at 2 μM: read-out: Scaled-up CLint
Procedure, shortened: (§1)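 Microsomes in phosphate buffer with MgCl2 were pre-warmed for 5 min at 37° C and 1 mM NADPH was added. Reactions began with 2 μM compound, and aliquots were stopped with cold methanol at five times up to 60 min. Remaining parent by LC-MS/MS gave the half-life and CLint.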

[3] = Pharmacokinetic studies in rat (i.v.); assay type: in vivo; conditions: dose 1.37 mg/kg (I-71, I-128), 1.33 mg/kg ((S) I-67); for concentration at 0.25 h / concentration at 1 h / concentration at 4 h / AUC(0-t) / half-life: male, Sprague-Dawley, rat, plasma; for concentration at 0.25 h / concentration at 1 h / concentration at 4 h: intravenous; for concentration at 0.25 h / concentration at 1 h / concentration at 4 h / Plasma concentration: rat i.v.; for AUC(0-t) / half-life: iv, rat plasma, i.v.; for half-life: estimated from 2 points only; for concentration at 4 h / Plasma concentration: 4 h
Procedure, shortened: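 Male Sprague-Dawley rats (~225-350 g) received compounds intravenously via tail vein in 5% Tween-80 in saline. Saphenous blood was sampled at 0.25, 1 and 4 h and analysed by LC-MS/MS. t1/2 and AUC0-tlast came from non-compartmental analysis using the linear up/log down trapezoidal rule.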

[4] = Rat liver microsomes stability; assay type: in vitro ADME; conditions: rat liver microsomes; for half-life at 2 μM / CLint scaled at 2 μM / microsomal CLint at 2 μM: male, pooled liver microsomes; for half-life at 2 μM / microsomal CLint at 2 μM: 2 μM compound, 0.5 mg/mL; for CLint scaled at 2 μM: read-out: Scaled-up CLint; for microsomal CLint at 2 μM: rat, read-out: CLint (μL/min/mg protein)
Procedure, shortened: as §1

[5] = first individual rat (R01/R04), read-out: Plasma concentration
[6] = mean of 3 rats, read-out: Plasma concentration, Mean ± SD
[7] = second individual rat (R02/R05), read-out: Plasma concentration
[8] = third individual rat (R03/R06), read-out: Plasma concentration
[9] = first individual rat (R01/R04), read-out: AUC0-tlast
[10] = first individual rat (R01/R04), read-out: Apparent t1/2 (converted)
[11] = mean of 3 rats, read-out: AUC0-tlast, Mean ± SD
[12] = mean of 3 rats, read-out: Apparent t1/2, Mean ± SD (converted)
[13] = second individual rat (R02/R05), read-out: AUC0-tlast
[14] = second individual rat (R02/R05), read-out: Apparent t1/2 (converted)
[15] = third individual rat (R03/R06), read-out: AUC0-tlast
[16] = third individual rat (R03/R06), read-out: Apparent t1/2 (converted)

Molecule `COc1ccc2[nH]cc(CCN(C)CCOC(F)F)c2c1` [Compound I-71, 2-(Difluoromethoxy)-N-(2-(5-methoxy-1H-indol-3-yl)ethyl)-N-methylethan-1-amine] has a microsomal CLint at 2 μM [1] of 178 µL/min/mg, a half-life at 2 μM [1] of 7.8 min and a CLint scaled at 2 μM [1] of 777 mL/min/kg. The “Predicted hepatic CL” value [1] was 80.66 mL/min/kg, the “Remaining Percentage (%)” value ([1]; With Cofactors, 0 min) was 100.00% and the “Remaining Percentage (%)” value ([1]; With Cofactors, 30 min) was 6.96%. The “Remaining Percentage (%)” value ([1]; With Cofactors, 60 min) was 0.66%, the “Remaining Percentage (%)” value ([1]; Without Cofactors, 0 min) was 100.00% and the “Remaining Percentage (%)” value ([1]; Without Cofactors, 30 min) was 105.81%. For the same molecule, the “Remaining Percentage (%)” value ([1]; Without Cofactors, 60 min) was 109.68%, the “Predicted hepatic CL” value [2] was 17.80 mL/min/kg and the half-life at 2 μM [2] was 13.7 min. The microsomal CLint at 2 μM [2] was 101 µL/min/mg, the “Remaining Percentage (%)” value ([2]; With Cofactors, 0 min) was 100.00% and the “Remaining Percentage (%)” value ([2]; With Cofactors, 30 min) was 26.55%. For the same molecule, the “Remaining Percentage (%)” value ([2]; With Cofactors, 60 min) was 4.78%, the “Remaining Percentage (%)” value ([2]; Without Cofactors, 0 min) was 100.00% and the “Remaining Percentage (%)” value ([2]; Without Cofactors, 30 min) was 98.77%. For the same molecule, the “Remaining Percentage (%)” value ([2]; Without Cofactors, 60 min) was 104.91%, the CLint scaled at 2 μM [2] was 127 mL/min/kg and the concentration at 0.25 h [3, 5] was 292 ng/mL. The concentration at 0.25 h [3, 6] was 286 ± 6.03 ng/mL, the concentration at 0.25 h [3, 7] was 280 ng/mL and the concentration at 0.25 h [3, 8] was 287 ng/mL. For the same molecule, the concentration at 1 h [3, 5] was 61.5 ng/mL, the concentration at 1 h [3, 6] was 82.5 ± 19.1 ng/mL and the concentration at 1 h [3, 7] was 87.2 ng/mL. It also gave a concentration at 1 h [3, 8] of 98.9 ng/mL, a concentration at 4 h [3, 5] of 1.27 ng/mL and a concentration at 4 h [3, 6] of 1.82 ± 0.582 ng/mL. For the same molecule, the concentration at 4 h [3, 7] was 1.77 ng/mL, the concentration at 4 h [3, 8] was 2.43 ng/mL and the AUC(0-t) [3, 9] was 253 ng·h/mL. For the same molecule, the half-life [3, 10] was 29.6 min, the AUC(0-t) [3, 11] was 275 ± 21.7 ng·h/mL and the half-life [3, 12] was 31.2 ± 1.69 min. The AUC(0-t) [3, 13] was 275 ng·h/mL, the half-life [3, 14] was 31.1 min and the AUC(0-t) [3, 15] was 297 ng·h/mL. For the same molecule, the half-life [3, 16] was 32.9 min, the half-life at 2 μM [4] was 9.7 min and the CLint scaled at 2 μM [4] was 256 mL/min/kg. For the same molecule, the microsomal CLint at 2 μM [4] was 143 µL/min/mg, the “Predicted hepatic CL” value [4] was 45.41 mL/min/kg and the “Remaining Percentage (%)” value ([4]; With Cofactors, 0 min) was 100.00%. The “Remaining Percentage (%)” value ([4]; With Cofactors, 30 min) was 10.63%, the “Remaining Percentage (%)” value ([4]; With Cofactors, 60 min) was 1.37% and the “Remaining Percentage (%)” value ([4]; Without Cofactors, 0 min) was 100.00%. For the same molecule, the “Remaining Percentage (%)” value ([4]; Without Cofactors, 30 min) was 96.79% and the “Remaining Percentage (%)” value ([4]; Without Cofactors, 60 min) was 100.64%.
Work on `CN(C)CCc1c[nH]c2ccc(OCCOC(F)F)cc12` [Compound I-128, 2-(5-(2-(Difluoromethoxy)ethoxy)-1H-indol-3-yl)-N,N-dimethylethan-1-amine] yielded a microsomal CLint at 2 μM [1] of 66.7 µL/min/mg, a half-life at 2 μM [1] of 20.8 min and a CLint scaled at 2 μM [1] of 292 mL/min/kg. The “Predicted hepatic CL” value [1] was 68.78 mL/min/kg, the “Remaining Percentage (%)” value ([1]; With Cofactors, 0 min) was 100.00% and the “Remaining Percentage (%)” value ([1]; With Cofactors, 30 min) was 37.09%. For the same molecule, the “Remaining Percentage (%)” value ([1]; With Cofactors, 60 min) was 13.52%, the “Remaining Percentage (%)” value ([1]; Without Cofactors, 0 min) was 100.00% and the “Remaining Percentage (%)” value ([1]; Without Cofactors, 30 min) was 89.52%. For the same molecule, the “Remaining Percentage (%)” value ([1]; Without Cofactors, 60 min) was 87.90%, the “Predicted hepatic CL” value [2] was 16.28 mL/min/kg and the half-life at 2 μM [2] was 22.8 min. For the same molecule, the microsomal CLint at 2 μM [2] was 60.8 µL/min/mg, the “Remaining Percentage (%)” value ([2]; With Cofactors, 0 min) was 100.00% and the “Remaining Percentage (%)” value ([2]; With Cofactors, 30 min) was 41.35%. The “Remaining Percentage (%)” value ([2]; With Cofactors, 60 min) was 16.15%, the “Remaining Percentage (%)” value ([2]; Without Cofactors, 0 min) was 100.00% and the “Remaining Percentage (%)” value ([2]; Without Cofactors, 30 min) was 39.57%. For the same molecule, the “Remaining Percentage (%)” value ([2]; Without Cofactors, 60 min) was 16.12%, the CLint scaled at 2 μM [2] was 76.2 mL/min/kg and the concentration at 0.25 h [3, 5] was 146 ng/mL. The concentration at 0.25 h [3, 6] was 138 ± 9.07 ng/mL, the concentration at 0.25 h [3, 7] was 128 ng/mL and the concentration at 0.25 h [3, 8] was 139 ng/mL. For the same molecule, the concentration at 1 h [3, 5] was 19 ng/mL, the concentration at 1 h [3, 6] was 15.2 ± 3.32 ng/mL and the concentration at 1 h [3, 7] was 13.1 ng/mL. For the same molecule, the concentration at 1 h [3, 8] was 13.4 ng/mL, the AUC(0-t) [3, 9] was 99 ng·h/mL and the half-life [3, 10] was 15.3 min. For the same molecule, the AUC(0-t) [3, 11] was 92.5 ± 6.63 ng·h/mL, the half-life [3, 12] was 14.1 ± 1.04 min and the AUC(0-t) [3, 13] was 85.7 ng·h/mL. The half-life [3, 14] was 13.7 min, the AUC(0-t) [3, 15] was 92.9 ng·h/mL and the half-life [3, 16] was 13.3 min. For the same molecule, the Plasma concentration ([3]; first individual rat (R01/R04)) was “No Peak”, the Plasma concentration ([3]; second individual rat (R02/R05)) was “No Peak” and the Plasma concentration ([3]; third individual rat (R03/R06)) was “No Peak”. It also gave a half-life at 2 μM [4] of 7.43 min, a CLint scaled at 2 μM [4] of 334 mL/min/kg and a microsomal CLint at 2 μM [4] of 187 µL/min/mg. The “Predicted hepatic CL” value [4] was 47.38 mL/min/kg, the “Remaining Percentage (%)” value ([4]; With Cofactors, 0 min) was 100.00% and the “Remaining Percentage (%)” value ([4]; With Cofactors, 30 min) was 6.09%. The “Remaining Percentage (%)” value ([4]; With Cofactors, 60 min) was 0.56%, the “Remaining Percentage (%)” value ([4]; Without Cofactors, 0 min) was 100.00% and the “Remaining Percentage (%)” value ([4]; Without Cofactors, 30 min) was 70.92%. The “Remaining Percentage (%)” value ([4]; Without Cofactors, 60 min) was 52.18%.

— patent publication US20250257034A1, “INDOLE DERIVATIVES AS SEROTONERGIC AGENTS USEFUL FOR THE TREATMENT OF DISORDERS RELATED THERETO” (priority 2023, published 2025)
